Like-named read-outs stand apart in the source and are kept apart here. No end group written: not given here.
Key:
Test in all cases: biochemical
Assay type in all cases: binding
[1] = target: HLA-DR DRB1*0101 (DR1) (Homo sapiens, UniProt P01903+P01911, A100R/D57E/F55L/F60I/F76Y/I96L/L162R/M171V/P40L/Q125E/R42F/V115G/Y59C)
[2] = target: HLA-DR DRB1*0401 (DR4) (Homo sapiens, UniProt P01903+P01911, A100K/A169T/F76Y/I96L/K127E/L162R/M171V/N62H/P40V/Q125Y/R42H/S133A/S149N/S66Y/V115G/V209L/W38E)
[3] = target: HLA-DR DRB1*0701 (DR7) (Homo sapiens, UniProt P01903+P01911, A100R/A102G/A103Q/D57E/D86V/E43K/F76Y/K127E/L162R/M171V/P40G/Q125H/Q99D/R33Q/R42Y/R54Q/S133A/S66F/T210M/V115G/Y107V/Y59L/Y89S)
[4] = target: HLA-DR DRB1*0802 (DR8) (Homo sapiens, UniProt P01903+P01911, A100R/A103L/A169T/F76Y/H45Y/I96F/K41T/L162R/M171V/P40S/Q125H/Q178H/Q39Y/Q99D/R218S/R42G/S66Y/V115G/W38E)
[5] = target: HLA-DR DRB1*1302 (DR13) (Homo sapiens, UniProt P01903+P01911, A100E/A169T/K41T/L162R/M171V/P40S/Q125H/Q178H/Q39Y/Q99D/R42S/S66N/T262R/V115G/W38E/Y61H)
[6] = target: HLA-DR DRB1*1501 (DR15) (Homo sapiens, UniProt P01903+P01911)
[7] = target: HLA-DR DRB4*0101 (DR53) (Homo sapiens, UniProt P01903+P13762, G164S)
[8] = target: HLA-DR DRB5*0101 (DR51) (Homo sapiens, UniProt P01903+Q30154); details: DRB5 *0101
[9] = target: HLA-DR DRB1*0301 (DR3) (Homo sapiens, UniProt P01903+P01911, A100K/A102G/A103R/A169T/F55Y/I96L/K41T/L162R/M171V/P40S/Q125H/Q178H/Q39Y/R42S/S66N/T106N/T262R/W38E/Y61H)
Sequence of HLA-DR DRB1*0301 (DR3) (P01903 26-254 limits assumed, other chains not shown): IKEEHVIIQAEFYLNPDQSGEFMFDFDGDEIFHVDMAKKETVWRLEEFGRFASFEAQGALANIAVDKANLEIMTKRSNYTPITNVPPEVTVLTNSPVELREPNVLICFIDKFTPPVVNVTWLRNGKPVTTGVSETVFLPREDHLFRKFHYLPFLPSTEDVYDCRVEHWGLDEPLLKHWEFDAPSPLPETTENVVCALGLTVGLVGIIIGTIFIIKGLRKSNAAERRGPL

Sequence of HLA-DR DRB1*1302 (DR13) (P01903 26-254 limits assumed, other chains not shown): as above

| Molecule | IC50 [4] [µM] | IC50 [8] [µM] | IC50 ([1]; DRB1 *0101) [µM] | IC50 ([2]; DRB1 *0401) [µM] | IC50 ([3]; DRB1 *0701) [µM] | IC50 ([6]; DRBI *1501) [µM] | IC50 ([7]; DRB4 *0101) [µM] | IC50 ([5]; DRBI *1302) [µM] | further results |
| --- | --- | --- | --- | --- | --- | --- | --- | --- | --- |
| CC[C@H](C)[C@H](NC(=O)[C@H](Cc1ccc(O)cc1)NC(=O)[C@@H]1CCCN1)C(=O)N[C@@H](CC(C)C)C(=O)N[C@@H](CC(C)C)C(=O)N[C@H](C(=O)N[C@@H](CO)C(=O)N[C@@H](CO)C(=O)N[C@@H](CCCCN)C(=O)N[C@H](C(=O)N[C@@H](CO)C(=O)N[C@H](C(=O)N[C@H](C(=O)N[C@@H](CCCCN)C(=O)N[C@@H](CC(=O)O)C(=O)O)C(C)C)[C@@H](C)O)C(C)C)C(C)C | 0.012 | 0.032 | – | – | – | – | – | – | IC50 [1]: 0.0011 µM; IC50 [2]: 0.064 µM; IC50 [3]: 0.038 µM; IC50 [5]: 0.0072 µM; IC50 [6]: 0.022 µM; IC50 [7]: 0.107 µM |
| ALLIIPPKIHISIEL | 12 | 7.14 | 0.648 | 1.74 | 0.0084 | 1.82 | 0.01 | – | – |
| FENLVAENVKPPKVD | > 25 | 62.7 | 0.056 | 2.37 | 120 | > 50.8 | 9.3 | 3.03 | – |
| FIHFFTWGTMFVPKY | 1.7 | 9.61 | – | 0.273 | 0.489 | 2.38 | – | 0.328 | – |
| GVIYIMIISKKMMRK | 0.137 | 0.046 | 0.01 | 0.022 | – | 0.173 | 0.157 | – | – |
| ILFLVKMNALRRLPV | 0.019 | 0.014 | 0.0008 | 0.0056 | 0.056 | 0.0014 | 0.0076 | – | – |
| KCEFQDAYVILLSEKK | 0.489 | 0.02 | 0.014 | 0.073 | 0.336 | > 47.6 | > 19.6 | > 10.3 | IC50 [9]: 5.79 µM |
| LDIYQKLYIKQEEQK | 1.2 | 6.96 | 2.83 | 1.49 | > 88.3 | 0.047 | 0.07 | 4.35 | – |
| LKELIKVGLPSFENL | 1.49 | 41.3 | 0.099 | 0.163 | 0.542 | 0.361 | 0.11 | – | – |
| MNALRRLPVICSFLV | 0.265 | 2.56 | 0.0021 | 0.013 | – | 0.036 | 0.0057 | – | – |
| NHLINTPKIMPHHII | 1.3 | 8.88 | – | 4.8 | – | 0.56 | 1.63 | – | – |
| NVNLQKQLLTNHLIN [NVNLQKQLLTNHLIN] | 11.2 | > 7.21 | 0.096 | 2.46 | 0.555 | 4.45 | 0.354 | – | – |
| QKILIKIPVTKNIIT | 2.24 | 0.297 | 0.993 | 0.303 | 0.534 | 3.61 | 0.953 | 0.332 | – |
| SFLQNPQTSLCCFRK | – | – | – | – | – | – | – | – | IC50 ([9]; read-out: DRB1 *0301): 1.83 µM; IC50 ([2]; read-out: DRB1 *0401): 0.671 µM; IC50 ([3]; read-out: DRB1 *0701): 7.03 µM; IC50 ([4]; read-out: DRB1 *0802): 7.07 µM |
| TAWTIVRVEILRYFY | – | – | – | – | – | – | – | – | IC50 ([1]; read-out: DRB1 *0101): 0.0078 µM; IC50 ([9]; read-out: DRB1 *0301): 3 µM; IC50 ([2]; read-out: DRB1 *0401): 0.044 µM; IC50 ([3]; read-out: DRB1 *0701): 0.029 µM; IC50 ([4]; read-out: DRB1 *0802): 57.2 µM |
| VLFLQMMNVNLQKQL | 56.8 | > 7.21 | 0.0063 | 0.03 | 8.44 | 8.2 | 0.012 | 0.0086 | – |
| YEALIKLLPFSKRIR | 0.18 | 0.011 | 0.055 | 1.84 | 3.58 | 0.036 | 0.015 | 0.23 | – |
| YILLKKILSSRFNQM | 0.018 | 0.083 | 0.22 | 0.183 | 0.0083 | 0.026 | 0.34 | – | – |

Source: US20060079453A1, “Hla binding peptides and their uses” (priority 2002, published 2006)
